# System: Cleaved Caspase 3 (CC3)
# Test: Cleaved caspase 3 immunofluorescence during endoderm induction
# Type: cell-based, human
# Conditions: 48 hours of induction, 4 different cell-line experiments
# Description: Immunohistochemistry and Cell staining. iPSCs, endodermal cells and iHeps were fixed using 4% paraformaldehyde for 15 minutes, permeabilized using 0.1% Triton X-100 for 10 minutes followed by 3× PBS (phosphate buffered saline, Corning Life Sciences) rinses and blocking with 1.5% bovine serum albumin for 1 hour. Samples were incubated with primary antibody overnight. […]
# As a first step to understand the mechanism by which doxycycline was affecting induction of iPSCs into endoderm, we explored whether doxycycline was affecting proliferation versus cellular death. […] After quantification, we noted both significant Ki-67 staining and cleaved caspase 3 (CC3) staining, as expected (FIG. 3A). […]
smiles,measurement,value
C[C@H]1c2cccc(O)c2C(=O)C2=C(O)[C@]3(O)C(=O)C(C(N)=O)=C(O)[C@@H](N(C)C)[C@@H]3[C@@H](O)[C@@H]21 [doxycycline],decrease in CC3 staining,greater than 50%

# From patent US20230002736A1, “ENDODERM DIFFERENTIATION FROM PLURIPOTENT STEM CELL LINES” (priority 2019, published 2023)
